Assay results: patent US10781181B2, “N-((het) arylmethyl)-heteroaryl-carboxamides compounds as plasma kallikrein inhibitors” (Kalvista Pharmaceuticals Limited, priority 2014, dated 2020)

Columns and labels:
Type in all cases: biochemical
Human FXIa = Human FXIa (Homo sapiens (Human), UniProt P03951); assay: Determination of the % inhibition for FXIa; details: 40 μM of the test compound, human FXIa, 25° C.; for inhibition at 40 µM: read-out: % Inhibition @ 40 μM (human FXIa)
Experimental: Determination of the % Inhibition for FXIa
Human FXIa (Enzyme Research Laboratories) was incubated at 25° C. with the fluorogenic substrate Z-Gly-Pro-Arg-AFC and 40 μM of the test compound. Residual enzyme activity (initial rate of reaction) was determined by measuring the change in […].

Human KLK1 = Human KLK1 (Homo sapiens (Human), UniProt P06870); assay: Determination of the IC50 for KLK1; details: human KLK1, 25° C., substrate H-DVal-Leu-Arg-AFC
Chain of Human KLK1 (P06870 25-262): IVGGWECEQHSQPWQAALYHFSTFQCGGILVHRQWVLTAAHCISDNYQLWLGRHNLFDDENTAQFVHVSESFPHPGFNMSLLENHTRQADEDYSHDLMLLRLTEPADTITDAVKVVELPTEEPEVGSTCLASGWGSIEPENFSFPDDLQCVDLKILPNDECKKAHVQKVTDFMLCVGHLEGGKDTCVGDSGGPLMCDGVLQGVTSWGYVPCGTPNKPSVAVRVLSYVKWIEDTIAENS
Experimental: Determination of the IC50 for KLK1
(§1) Human KLK1 (Callbiochem) was incubated at 25° C. with the fluorogenic substrate H-DVal-Leu-Arg-AFC and various concentrations of the test compound. Residual enzyme activity (initial rate of reaction) was determined by measuring the change in […] at 410 nm and the IC50 value for the test compound was determined.

Human plasma kallikrein = Human plasma kallikrein (Homo sapiens (Human), UniProt P03952); assay: Determination of the IC50 for plasma kallikrein; details: read-out: IC50 (human PKal)
Chain of Human plasma kallikrein (P03952 391-638): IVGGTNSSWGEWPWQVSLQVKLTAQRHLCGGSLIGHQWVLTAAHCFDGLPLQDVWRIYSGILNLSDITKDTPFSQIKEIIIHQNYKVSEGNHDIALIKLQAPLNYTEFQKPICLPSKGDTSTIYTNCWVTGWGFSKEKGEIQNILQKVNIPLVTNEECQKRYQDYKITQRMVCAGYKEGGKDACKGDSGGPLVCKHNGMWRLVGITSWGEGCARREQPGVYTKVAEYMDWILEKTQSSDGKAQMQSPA
Chain of Human plasma kallikrein (P03952 20-390 partner): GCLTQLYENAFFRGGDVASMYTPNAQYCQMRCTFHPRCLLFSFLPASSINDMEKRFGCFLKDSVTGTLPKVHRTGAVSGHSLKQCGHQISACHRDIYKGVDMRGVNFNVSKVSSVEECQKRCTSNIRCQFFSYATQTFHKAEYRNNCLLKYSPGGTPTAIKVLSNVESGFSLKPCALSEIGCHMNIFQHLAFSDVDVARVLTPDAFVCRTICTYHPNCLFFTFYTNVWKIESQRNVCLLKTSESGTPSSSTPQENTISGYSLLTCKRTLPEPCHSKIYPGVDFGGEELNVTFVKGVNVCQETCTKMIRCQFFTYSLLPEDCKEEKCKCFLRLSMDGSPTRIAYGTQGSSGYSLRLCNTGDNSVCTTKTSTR
Experimental: Determination of the IC50 for Plasma Kallikrein
as §1, with “plasma kallikrein (Protogen)” for “KLK1 (Callbiochem)”, “H-DPro-Phe-Arg-AFC” for “H-DVal-Leu-Arg-AFC”

Chain of Human FXIa (P03951 388-625 limits assumed): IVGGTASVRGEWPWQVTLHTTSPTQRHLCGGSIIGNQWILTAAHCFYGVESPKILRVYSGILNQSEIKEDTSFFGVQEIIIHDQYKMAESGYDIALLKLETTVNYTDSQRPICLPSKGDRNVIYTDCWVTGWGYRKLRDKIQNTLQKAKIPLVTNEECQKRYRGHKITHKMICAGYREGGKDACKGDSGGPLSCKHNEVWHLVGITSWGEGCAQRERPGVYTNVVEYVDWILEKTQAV
Chain of Human FXIa (P03951 19-387 partner limits assumed): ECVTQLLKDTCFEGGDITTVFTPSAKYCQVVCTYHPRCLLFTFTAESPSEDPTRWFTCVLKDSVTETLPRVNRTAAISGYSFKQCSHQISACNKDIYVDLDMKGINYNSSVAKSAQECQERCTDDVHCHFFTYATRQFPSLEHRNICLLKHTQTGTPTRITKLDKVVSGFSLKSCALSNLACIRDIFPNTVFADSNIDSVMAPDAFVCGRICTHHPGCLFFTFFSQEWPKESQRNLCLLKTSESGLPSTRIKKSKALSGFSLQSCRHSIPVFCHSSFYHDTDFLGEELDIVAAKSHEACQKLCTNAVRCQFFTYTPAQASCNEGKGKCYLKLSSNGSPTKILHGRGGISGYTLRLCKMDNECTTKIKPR

Row | Structure (SMILES) | inhibition at 40 µM (Human FXIa) | IC50 (Human KLK1) | IC50 (Human plasma kallikrein) | % Inhibition @ 40 μM (human FXIa) (Human FXIa)
1 | Cc1cc(C(=O)NCCOc2cccc(Cl)c2)c(C)n1Cc1csc(-c2ccccc2)n1 [Example 48, N-[2-(3-chlorophenoxy)ethyl]-2,5-dimethyl-1-[(2-phenyl-1,3-thiazol-4-yl)methyl]pyrrole-3-carboxamide] |  | > 10 µM | 6.62 µM | 3%
2 | CNC(=O)CNc1cc(Cn2cc(C(=O)NCCOc3cccc(Cl)c3)c(N)n2)ccn1 [Example 68, 3-amino-N-[2-(3-chlorophenoxy)ethyl]-1-[(2-{[(methylcarbamoyl)methyl]amino}pyridin-4-yl)methyl]pyrazole-4-carboxamide] | 0% | > 40 µM | > 10 µM | 
3 | Nc1c(C(=O)NCCOc2cccc(Cl)c2)cnn1Cc1ccc(Cn2ccccc2=O)cc1 [Example 17, 5-amino-N-[2-(3-chlorophenoxy)ethyl]-1-({4-[(2-oxopyridin-1-yl)methyl]phenyl}methyl)pyrazole-4-carboxamide] | 2% | > 10 µM | 0.096 µM | 
4 | Nc1nn(Cc2ccnc(-n3cccn3)c2)cc1C(=O)NCCOc1cccc(Cl)c1 [Example 66, 3-amino-N-[2-(3-chlorophenoxy)ethyl]-1-{[2-(pyrazol-1-yl)pyridin-4-yl]methyl}pyrazole-4-carboxamide] | 0% | > 40 µM | 4.92 µM | 
5 | COCc1nn(Cc2ccc(Cn3ccccc3=O)cc2)cc1C(=O)NCCOc1ccc(F)c(Cl)c1 [Example 12, N-[2-(3-chloro-4-fluorophenoxy)ethyl]-3-(methoxymethyl)-1-({4-[(2-oxopyridin-1-yl)methyl]phenyl}methyl)pyrazole-4-carboxamide] | 0% | > 10 µM | 0.266 µM | 
6 | Nc1nn(Cc2ccc(Cn3ccccc3=O)cc2)cc1C(=O)NCCOc1cc(Cl)cc(Cl)c1 [Example 31, 3-amino-N-[2-(3,5-dichlorophenoxy)ethyl]-1-({4-[(2-oxopyridin-1-yl)methyl]phenyl}methyl)pyrazole-4-carboxamide] | 47% | > 40 µM | 0.646 µM | 
7 | COCc1nn(Cc2ccc(Cn3cc(C)cn3)cc2)cc1C(=O)NCCOc1cccc(Cl)c1 [Example 27, N-[2-(3-chlorophenoxy)ethyl]-3-(methoxymethyl)-1-({4-[(4-methylpyrazol-1-yl)methyl]phenyl}methyl)pyrazole-4-carboxamide] | 0% | > 10 µM | 0.231 µM | 
8 | Cc1ccc(OCCNC(=O)c2cn(Cc3ccc(Cn4ccccc4=O)cc3)nc2N)cc1Cl [Example 15, 3-amlno-N-[2-(3-chloro-4-methylphenoxy)ethyl]-1-({4-[(2-oxopyridin-1-yl)methyl]phenyl}methyl)pyrazole-4-carboxamide] |  | > 40 µM | 0.0246 µM | 1%
9 | O=C(NCCOc1cccc(Cl)c1)c1cn(Cc2ccc(N3CCCC3)nc2)nc1C(F)(F)F [Example 28, N-[2-(3-chlorophenoxy)ethyl]-1-{[6-(pyrrolidin-1-yl)pyridin-3-yl]methyl}-3-(trifluoromethyl)pyrazole-4-carboxamide] | 0% | > 10 µM | 2.39 µM | 
10 | N#Cc1ccc(Cl)cc1OCCNC(=O)c1cn(Cc2ccc(Cn3ccccc3=O)cc2)nc1N [Example 32, 3-amino-N-[2-(5-chloro-2-cyanophenoxy)ethyl]-1-({4-[(2-oxopyridin-1-yl)methyl]phenyl}methyl)pyrazole-4-carboxamide] | 10% | > 40 µM | 0.0101 µM | 
11 | Nc1nn(Cc2ccc(Cn3ccccc3=O)cc2)cc1C(=O)NCCOc1cccc(Cl)c1Cl [Example 29, 3-amino-N-[2-(2,3-dichlorophenoxy}ethyl]-1-({4-[(2-oxopyridin-1-yl)methyl]phenyl}methyl)pyrazole-4-carboxamide] | 0% | > 40 µM | 2.93 µM | 
12 | Nc1nn(Cc2ccc(N3CCCC3)nc2)cc1C(=O)NCCOc1cccc(Cl)c1 [Example 49, 3-amino-N-[2-(3-chlorophenoxy)ethyl]-1-{[6-(pyrrolidin-1-yl)pyridin-3-yl]methyl}pyrazole-4-carboxamide] | 0% | > 40 µM | 0.847 µM | 
13 | COCc1nn(Cc2ccc(Cn3ccccc3=O)cc2)cc1C(=O)NCCOc1cccc(Cl)c1 [Example 8, N-[2-(3-chlorophenoxy)ethyl]-3-(methoxymethyl)-1-({4-[(2-oxopyridin-1-yl)methyl]phenyl}methyl)pyrazole-4-carboxamide] | 0% | > 10 µM | 0.0166 µM | 
14 | Nc1c(C(=O)NCCOc2cccc(Cl)c2)cnn1Cc1ccc(C(=O)N2CCCC2)cc1 [Example 45, 5-amino-N-[2-(3-chlorophenoxy)ethyl]-1-({4-[(pyrrolidin-1-yl)carbonyl]phenyl}methyl)pyrazole-4-carboxamide] |  | > 40 µM | 6.25 µM | 

Now from value to molecule, other results behind:

Row | inhibition at 40 µM (Human FXIa) | IC50 (Human KLK1) | IC50 (Human plasma kallikrein) | Structure (SMILES) | % Inhibition @ 40 μM (human FXIa) (Human FXIa)
15 | 2% | > 40 µM | > 10 µM | Cn1ncc2cc(Cn3cc(C(=O)NCCOc4cccc(Cl)c4)c(N)n3)ccc21 [Example 93, 3-amino-N-[2-(3-chlorophenoxy)ethyl]-1-[(1-methylindazol-5-yl)methyl]pyrazole-4-carboxamide] | 
16 | 4% | > 40 µM | 6.93 µM | CNC(=O)CNc1ccc(Cn2cc(C(=O)NCCOc3cccc(Cl)c3)c(N)n2)cn1 [Example 78, 3-amino-N-[2-(3-chlorophenoxy)ethyl]-1-[(6-{[(methylcarbamoyl)methyl]amino}pyridin-3-yl)methyl]pyrazole-4-carboxamide] | 
17 | 23% | > 40 µM | 0.0421 µM | Nc1nn(Cc2ccc(Cn3ccccc3=O)cc2)cc1C(=O)N[C@H]1CC(=O)N(c2cccc(Cl)c2)C1 [Example 111, 3-amino-N-[(3S)-1-(3-chlorophenyl)-5-oxopyrrolidin-3-yl]-1-({4-[(2-oxopyridin-1-yl)methyl]phenyl}methyl)pyrazole-4-carboxamide] | 
18 | 6% | > 40 µM | > 10 µM | Nc1nn(Cc2cccc(C(=O)N3CCCC3)c2)cc1C(=O)NCCOc1cccc(Cl)c1 [Example 70, 3-amino-N-[2-(3-chlorophenoxy)ethyl]-1-({3-[(pyrrolidin-1-yl)carbonyl]phenyl}methyl)pyrazole-4-carboxamide] | 
19 | 33% | > 40 µM | 3.35 µM | Cc1cnn(-c2ccc(Cn3cc(C(=O)NCCOc4cccc(Cl)c4)c(N)n3)cn2)c1 [Example 89, 3-amino-N-[2-(3-chlorophenoxy)ethyl]-1-{[6-(4-methylpyrazol-1-yl)pyridin-3-yl]methyl}pyrazole-4-carboxamide] | 
20 | 0% | > 40 µM | 6.33 µM | Nc1nn(Cc2nc(-c3ccccc3)no2)cc1C(=O)NCCOc1cccc(Cl)c1 [Example 80, 3-amino-N-[2-(3-chlorophenoxy)ethyl]-1-[(3-phenyl-1,2,4-oxadiazol-5-yl)methyl]pyrazole-4-carboxamide] | 
21 | 26% | > 40 µM | 5.94 µM | Nc1nn(Cc2cccc(-c3ccccc3)n2)cc1C(=O)NCCOc1cccc(Cl)c1 [Example 72, 3-amino-N-[2-(3-chlorophenoxy)ethyl]-1-[(6-phenylpyridin-2-yl)methyl]pyrazole-4-carboxamide] | 
22 | 13% | > 40 µM | 0.004 µM | Nc1nn(Cc2ccc(Cn3ccccc3=O)cc2)cc1C(=O)N[C@@H]1CCN(c2cccc(Cl)c2)C1=O [Example 110, 3-amino-N-[(3R)-1-(3-chlorophenyl)-2-oxopyrrolidin-3-yl]-1-({4-[(2-oxopyridin-1-yl)methyl]phenyl}methyl)pyrazole-4-carboxamide] | 
23 | 4% | > 40 µM | 3.02 µM | C[C@@H](NC(=O)c1cn(Cc2ccc(Cn3ccccc3=O)cc2)nc1N)C(=O)N(C)c1cccc(Cl)c1 [Example 117, (2R)-2-{[3-amino-1-({4-[(2-oxopyridin-1-yl)methyl]phenyl}methyl)pyrazol-4-yl]formamido}-N-(3-chlorophenyl)-N-methylpropanamide] | 
24 |  | > 40 µM | 0.0076 µM | Nc1nn(Cc2ccc(Cn3ccccc3=O)cc2F)cc1C(=O)NCCOc1cccc(Cl)c1 [Example 101, 3-amino-N-[2-(3-chlorophenoxy)ethyl]-1-({2-fluoro-4-[(2-oxopyridin-1-yl)methyl]phenyl}methyl)pyrazole-4-carboxamide] | 
25 |  | > 40 µM | 0.0721 µM | Nc1nn(Cc2ccc(Cn3ccccc3=O)cn2)cc1C(=O)NCCOc1cccc(Cl)c1 [Example 102, 3-amino-N-[2-(3-chlorophenoxy)ethyl]-1-({5-[(2-oxopyridin-1-yl)methyl]pyridin-2-yl}methyl)pyrazole-4-carboxamide] | 
26 |  | > 40 µM | > 10 µM | Cc1nn(Cc2ccc(Cn3ccccc3=O)cc2)c(C)c1C(=O)NCCOc1cccc(Cl)c1 [Example 103, N-[2-(3-chlorophenoxy)ethyl]-3,5-dimethyl-1-({4-[(2-oxopyridin-1-yl)methyl]phenyl}methyl)pyrazole-4-carboxamide] | 
